Usually pIC50 stands for −log10 of the IC50, conventionally taken in molar units. A lower pIC50 goes with a large IC50. By inhibition is commonly meant how much of the control response was suppressed.

The results in this text go back to ChEMBL document CHEMBL4422646, “Synthesis and biological evaluation of 3-amino-, 3-alkoxy- and 3-aryloxy-6-(hetero)arylpyridazines as potent antitumor agents” (Bioorg Med Chem Lett, 2019).

pIC50: −log10 of the molar value. Active and inactive are the calls of the source. The calls are words filed in the database; no cut-off is given here.

The subject of data set [1] is HCT-116. As to the kind of experiment: Antiproliferative activity against human HCT116 cells after 48 hrs by Hoechst 33342 staining-based assay. It counts as functional, cell-based. The conditions noted are these: HCT-116, 48 h.
The target of data set [2] is RAC-alpha serine/threonine-protein kinase (Homo sapiens) (UniProt P31749). The data set can be described thus: Inhibition of EGF-stimulated Akt phosphorylation in human MDA-MB-468-Luc cells at 10^-5 M pre-incubated for 1 hr before EGF stimulation for 15 mins by Western blot analysis relative to control. The data set is classed as cell-based. (In general: Immunoblotting shows a protein as a band on a membrane.)

The subject of data set [3] is MDA-MB-231. The data set can be described thus: Antiproliferative activity against human MDA-MB-231 cells after 48 hrs by Hoechst 33342 staining-based assay. The data set is classed as functional, cell-based. The conditions noted are these: MDA-MB-231, 48 h.
For data set [4], the system named is MDA-MB-468. As to the kind of experiment: Anticlonogenic activity against human MDA-MB-468 cells harboring luciferase reporter gene after 2 weeks by Giemsa staining-based assay. It counts as functional, cell-based. The conditions noted are these: MDA-MB-468, 336 h. (A reporter such as luciferase makes a cellular process visible.)
Data set [5] has as its system Fibroblast. As to the kind of experiment: Antiproliferative activity against human fibroblast cells after 48 hrs by Hoechst 33342 staining-based assay. The data set is classed as cell-based.
Data set [6] concerns NCI-H727. As to the kind of experiment: Antiproliferative activity against human NCI-H727 cells after 48 hrs by Hoechst 33342 staining-based assay. It counts as functional, cell-based. As to conditions: NCI-H727, 48 h.
Data set [7] addresses Mitogen-activated protein kinase; ERK1/ERK2 (Homo sapiens) (UniProt P27361+P28482). As to the kind of experiment: Inhibition of EGF-stimulated p44/42 phosphorylation in human MDA-MB-468-Luc cells at 10^-5 M pre-incubated for 1 hr before EGF stimulation for 15 mins by Western blot analysis relative to control. It counts as cell-based.
Data set [8] concerns Huh-7. As to the kind of experiment: Antiproliferative activity against human HuH7 cells after 48 hrs by Hoechst 33342 staining-based assay. It counts as functional, cell-based. The conditions noted are these: Huh-7, 48 h.
Data set [9] deals with Caco-2. The data set can be described thus: Antiproliferative activity against human Caco2 cells after 48 hrs by Hoechst 33342 staining-based assay. The conditions noted are these: Caco-2, 48 h. It counts as functional, cell-based.
The subject of data set [10] is PC-3. As to the kind of experiment: Antiproliferative activity against human PC3 cells after 48 hrs by Hoechst 33342 staining-based assay. The data set is classed as functional, cell-based. The conditions noted are these: PC-3, 48 h.
For data set [11], the system named is Huh-7. The data set can be described thus: Antiproliferative activity against human HuH7 cells at 0.1 to 25 uM after 48 hrs by Hoechst 33342 staining-based assay relative to control. The data set is classed as functional.
Data set [12] deals with PC-3. The data set can be described thus: Antiproliferative activity against human PC3 cells at 0.1 to 25 uM after 48 hrs by Hoechst 33342 staining-based assay relative to control. The data set is classed as functional.
Data set [13] deals with HCT-116. As to the kind of experiment: Antiproliferative activity against human HCT116 cells at 0.1 to 25 uM after 48 hrs by Hoechst 33342 staining-based assay relative to control. It counts as functional.
The nature of data set [14]: Toxicity in zebrafish embryos at 2.5 uM after 72 hrs. On the set-up: species or system Danio rerio. The conditions noted are these: in vivo.
Data set [15] has as its system Fibroblast. The data set can be described thus: Antiproliferative activity against human fibroblast cells at 0.1 to 25 uM after 48 hrs by Hoechst 33342 staining-based assay relative to control. It counts as cell-based.
The nature of data set [16]: Toxicity in zebrafish embryos assessed as effect on embryo development at 0.8 uM after 72 hrs. On the set-up: species or system Danio rerio. As to conditions: in vivo.
Data set [17] in a line: Toxicity in zebrafish embryos assessed as alive embryo at 0.8 uM after 72 hrs. On the set-up: species or system Danio rerio. As to conditions: in vivo.
The test system of data set [18] is NCI-H727. The data set can be described thus: Antiproliferative activity against human NCI-H727 cells at 0.1 to 25 uM after 48 hrs by Hoechst 33342 staining-based assay relative to control. It counts as functional.
A short description of data set [19]: Toxicity in zebrafish embryos assessed as effect on embryo mobility at 0.8 uM after 72 hrs. On the set-up: species or system Danio rerio. The conditions noted are these: in vivo.
For data set [20], the system named is HaCaT. As to the kind of experiment: Antiproliferative activity against human HaCaT cells after 48 hrs by Hoechst 33342 staining-based assay. The data set is classed as cell-based.
In data set [21] the test system is MDA-MB-231. The data set can be described thus: Antiproliferative activity against human MDA-MB-231 cells at 0.1 to 25 uM after 48 hrs by Hoechst 33342 staining-based assay relative to control. The data set is classed as functional.
In data set [22] the test system is HepaRG. The data set can be described thus: Hepatotoxicity in human HepaRG cells at 2.5 uM after 48 hrs. It counts as toxicity, cell-based.
Data set [23] relates to HaCaT. The data set can be described thus: Antiproliferative activity against human HaCaT cells at 0.1 to 25 uM after 48 hrs by Hoechst 33342 staining-based assay relative to control. It counts as cell-based.
Data set [24] in a line: Toxicity in zebrafish embryos assessed as reduction in eye size at 2.5 uM after 72 hrs. The conditions noted are these: in vivo. On the set-up: species or system Danio rerio.
The nature of data set [25]: Toxicity in zebrafish embryos assessed as reduction in eye size at 0.8 uM after 72 hrs. On the set-up: species or system Danio rerio. The conditions noted are these: in vivo.

RAC-alpha serine/threonine-protein kinase (Homo sapiens), sequence (P31749 whole entry): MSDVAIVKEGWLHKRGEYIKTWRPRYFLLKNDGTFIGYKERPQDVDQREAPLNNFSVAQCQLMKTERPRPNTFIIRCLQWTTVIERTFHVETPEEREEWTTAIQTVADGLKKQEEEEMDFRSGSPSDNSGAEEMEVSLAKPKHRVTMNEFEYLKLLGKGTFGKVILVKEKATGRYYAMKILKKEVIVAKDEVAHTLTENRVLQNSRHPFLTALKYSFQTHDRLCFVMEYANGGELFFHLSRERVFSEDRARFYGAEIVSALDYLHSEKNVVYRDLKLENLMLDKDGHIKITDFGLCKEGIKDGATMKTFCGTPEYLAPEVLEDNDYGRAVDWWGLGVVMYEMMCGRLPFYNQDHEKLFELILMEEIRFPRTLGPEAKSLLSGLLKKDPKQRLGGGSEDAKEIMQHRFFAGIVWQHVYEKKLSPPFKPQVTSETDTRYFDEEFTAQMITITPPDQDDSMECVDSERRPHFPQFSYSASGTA
Mitogen-activated protein kinase; ERK1/ERK2 (Homo sapiens), sequence (P27361 whole entry, looked up): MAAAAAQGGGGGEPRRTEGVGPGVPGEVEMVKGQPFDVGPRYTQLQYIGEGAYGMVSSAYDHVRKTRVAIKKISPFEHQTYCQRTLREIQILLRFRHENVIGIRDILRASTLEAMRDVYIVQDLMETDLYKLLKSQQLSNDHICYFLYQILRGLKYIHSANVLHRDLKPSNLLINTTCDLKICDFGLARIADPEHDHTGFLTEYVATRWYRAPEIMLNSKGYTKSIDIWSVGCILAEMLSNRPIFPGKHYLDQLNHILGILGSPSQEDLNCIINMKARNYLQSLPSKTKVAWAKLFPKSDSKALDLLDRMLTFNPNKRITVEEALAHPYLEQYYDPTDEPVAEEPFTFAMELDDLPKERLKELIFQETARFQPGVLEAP
Mitogen-activated protein kinase; ERK1/ERK2 (Homo sapiens), sequence (P28482 whole entry, looked up): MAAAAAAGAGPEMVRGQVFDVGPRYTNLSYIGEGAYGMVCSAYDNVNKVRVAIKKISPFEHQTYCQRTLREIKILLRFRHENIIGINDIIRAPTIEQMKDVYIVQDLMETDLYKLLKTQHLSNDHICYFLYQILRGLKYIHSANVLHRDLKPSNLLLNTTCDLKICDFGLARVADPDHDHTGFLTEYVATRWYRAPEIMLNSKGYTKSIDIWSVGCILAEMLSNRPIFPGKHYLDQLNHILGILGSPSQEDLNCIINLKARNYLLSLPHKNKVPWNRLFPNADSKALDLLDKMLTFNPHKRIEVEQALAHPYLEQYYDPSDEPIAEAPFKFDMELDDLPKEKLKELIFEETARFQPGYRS

In the case of `COC(=O)c1ccc(-c2ccc(N(C)C)nn2)cc1`, the pIC50 in data set [1] was less than 4.60; in [3] it was less than 4.60; in data set [4], 5.46; in data set [5] it was less than 4.60; in [6] it was less than 4.60; in data set [8] it was less than 4.60. The pIC50 in data set [9] and in [10] was less than 4.60 throughout. Besides, the inhibition entry in data set [2] and in data set [7] was “inactive” each time.

As to `CCOC(=O)c1ccc(-c2ccc(N(CC)CC)nn2)cc1`, the pIC50 in [1] was 6.30; in data set [3] it was 5.82; in data set [4] it was 6.92; in data set [5], 5.52; in data set [6], 5.82; in data set [8] it was 5.05. Besides, the pIC50 in data set [20] was 6.30; in [9], 5.40; in data set [10], 6.00. Besides, the inhibition result in data set [2] is “Active”. The Activity in data set [11] was 60%; in data set [12], 80%; in data set [13], 90%; in data set [14] it was “Toxic”; in [15], 40%; in [16] it was “Non-Toxic”. Moreover, the Activity result was “Non-Toxic” in [17]; 60% in [18]; “Non-Toxic” in [19]; 70% in data set [21]; “Non-Toxic” in data set [22]; 80% in data set [23]. The same compound came in with an inhibition in [7] of 70%.

On to `CCOC(=O)c1ccc(-c2ccc(N(C)C)nn2)cc1`, for which the pIC50 is less than 4.60 in [1]; less than 4.60 in [3]; 4.59 in data set [4]; less than 4.60 in data set [5]; less than 4.60 in data set [6]; less than 4.60 in [8]. In addition, the negative logarithm of the IC50 (pIC50) in data set [9] and in data set [10] was less than 4.60 throughout. Besides, the inhibition entry in [2] and in [7] was “inactive” each time.

On to `CCN(CC)c1ccc(-c2ccc(C(=O)OC)cc2)nn1`, for which the pIC50 in data set [1] was 7.22; in data set [3] it was 6.85; in [4], 7.82; in data set [5], 7.00; in [6], 7.05; in [8], 7.05. The pIC50 is 7.10 in data set [20], 6.60 in [9] and 7.05 in data set [10]. In addition, the inhibition is more than 70% in [2] and 70% in data set [7]. The Activity in [11] is given as 60%; in [12], 72%; in data set [13] it was 100%; in [14], “Toxic”; in data set [15] it was 40%; in data set [16], “Non-Toxic”. Besides, the Activity entry in data set [17] is “Non-Toxic”; in data set [18], 60%; in data set [24] it was “Toxic”; in data set [19], “Non-Toxic”; in [21], 60%; in data set [25], “Non-Toxic”. Further, the Activity result in data set [22] is on record as “Non-Toxic”; in data set [23], 85%.

As for `CCN(CC)c1ccc(-c2ccc(C(C)=O)cc2)nn1`, the pIC50 was 5.22 in [1]; 5.30 in data set [3]; 6.19 in data set [4]; less than 4.60 in data set [5]; 4.60 in data set [6]; 4.60 in data set [8]. Besides, the figures for the negative-log IC50 (pIC50) in [20], in data set [9] and in data set [10] were 4.70, 4.82 and less than 4.60, respectively. Also, the Activity in data set [11] is 80%; in [13], 100%; in data set [18], 80%; in data set [21], 60%; in data set [23], 80%. This compound displayed an inhibition in [7] of less than 50%.

As to `COc1cccc2c1C(=O)c1c(O)c3c(c(O)c1C2=O)C[C@@](O)(C(=O)CO)C[C@@H]3O[C@H]1C[C@H](N)[C@H](O)[C@H](C)O1` [DOXORUBICIN], the negative-log IC50 (pIC50) in data set [1] was 7.30; in [3] it was 7.92; in data set [5], 8.30; in [6], 7.52; in data set [8], 7.52; in data set [20], 7.52. Also, the values for the pIC50 in [9] and in data set [10] were 7.05 and 7.10, respectively. Also, the Activity came out at 40% in data set [11]; 80% in data set [12]; 80% in [13]; 40% in data set [15]; 60% in data set [18]; 50% in data set [21]. The compound further yielded an Activity in data set [23] of 70%.
